The conditions of data set [1]: ref MedChemExpress, cited from earlier work; for solubility, DMSO: in DMSO; for solubility, H2O: in H2O.
The target in another data set is T1, Rlig1-AMP (Homo sapiens, UniProt Q8N999).
T1 construct: made in house; host or cells: E. coli BL21 (DE3), pET15b-Rlig1
Briefly: FRET-based high-throughput screening of inhibitors for Rlig1-AMP. In kind it is biochemical. Particulars: for 1-D Distance: difference of raw data w/o and w enzyme; for Raw data [w Enyzm]: with enzyme; for Raw data [w/o Enzym]: without enzyme.

The conditions of data set [2]: ref MedChemExpress, cited from earlier work.
Where [3] appears, read: HTS hits, normalized value (npi).
Where [4] appears, read: sheet HTS hits, MedChemExpress library.

In general, solubility refers to the dissolved amount per volume that the medium holds.

In brackets after ≈: the same amount, converted by molar mass. Several values for one entry are separate records, joined by “and”; a condition that tells them apart may be missing. Equal values may be shown once. Read-outs that look alike come from different tables or passages of the source. Some results are limits rather than exact numbers.

T1 sequence (Q8N999 whole entry): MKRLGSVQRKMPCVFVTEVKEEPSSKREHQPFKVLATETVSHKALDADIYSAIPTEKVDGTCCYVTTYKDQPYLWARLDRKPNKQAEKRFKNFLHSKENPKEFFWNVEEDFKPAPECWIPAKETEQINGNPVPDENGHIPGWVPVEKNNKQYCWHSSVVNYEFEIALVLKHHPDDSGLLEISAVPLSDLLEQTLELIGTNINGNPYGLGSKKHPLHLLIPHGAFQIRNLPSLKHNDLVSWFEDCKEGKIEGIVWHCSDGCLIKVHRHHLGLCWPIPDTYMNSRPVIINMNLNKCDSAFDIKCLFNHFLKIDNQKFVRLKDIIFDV

As to `CC1=NN(c2ccc(C)c(C)c2)C(=O)/C1=N\Nc1cccc(-c2cccc(C(=O)O)c2)c1O` [Eltrombopag], in data set [1], the “solubility, DMSO” value was 8330 µg/mL (≈ 18.8 mM) and the “solubility, H2O” value is under 100 µg/mL. Further, on Rlig1-AMP (sheet HTS hits), the “1-D Distance” value was 1388, the “Raw data [w Enyzm]” value was 3742 and the “Raw data [w/o Enzym]” value was 5130.
Consider `O=C1c2ccccc2-c2nc3nnnn3nc21.O=C1c2ccccc2-c2nn3nnnc3nc21` [KP372-1], for which, on Rlig1-AMP (HTS hits), the “1-D Distance” value was found to be 385, the “Raw data [w Enyzm]” value was 14308 and the “Raw data [w/o Enzym]” value was 13923. Besides, on Rlig1-AMP (setting [3]), the “1-D Distance.npi” value is on record as 99.8878. Further, in data set [2] (DMSO), the solubility is 17.86 mg/mL and 39.83 mM.
Take `CCn1c(=O)/c(=C2\Sc3ccccc3N2C)s/c1=C\c1cccc[n+]1CC.[Cl-]` [MKT-077]: at Rlig1-AMP (HTS hits), the “1-D Distance” value was found to be 170, the “Raw data [w Enyzm]” value worked out at 657 and the “Raw data [w/o Enzym]” value came out at 827. Moreover, the “1-D Distance.npi” value on Rlig1-AMP (setting [3]) was determined as 104.232. The solubility in data set [2] (DMSO) is 56.67 mg/mL and 131.18 mM. In data set [2] (H2O), the solubility is reported as under 0.1 mg/mL.
As to `COC(=O)/C=C/c1ccc(O)c(O)c1` [Methyl caffeate], in data set [1], the “solubility, DMSO” value is “DMSO : 33.33 mg/mL (171.64 mM; ultrasonic and warming and heat to 60°C)”. Moreover, on Rlig1-AMP (sheet HTS hits), the “1-D Distance” value turned out to be 1343, the “Raw data [w Enyzm]” value is 9476 and the “Raw data [w/o Enzym]” value was determined as 10819.
As for `[N-]=[N+]=NCCOCCOCCOCCN(CCOCCOCCN)CCOCCOCCOCCN=[N+]=[N-]` [N-(Amino-PEG2)-N-bis(PEG3-azide)], the “solubility, DMSO” value in data set [1] is given as “DMSO : 100 mg/mL (181.60 mM; Need ultrasonic)”. Moreover, the “1-D Distance.npi” value on Rlig1-AMP (setting [4]) is reported as 72.3118. For the same compound, on Rlig1-AMP (sheet HTS hits), the “1-D Distance” value amounted to 1919, the “Raw data [w Enyzm]” value was determined as 9036 and the “Raw data [w/o Enzym]” value came out at 10955.
For `O=C1c2ccccc2C(=O)c2c1cc(S(=O)(=O)Nc1ccc(C(F)(F)F)cc1)c(O)c2O` [PGMI-004A], at Rlig1-AMP (HTS hits), the “1-D Distance” value was 1480 and the “Raw data [w Enyzm]” value is reported as 2222. Also, the “1-D Distance.npi” value on Rlig1-AMP (setting [3]) is 78.7935. In data set [2] (DMSO), the solubility was ≥ 125 mg/mL and ≥ 269.76 mM.
`Cc1[nH]c(/C=C2\C(=O)Nc3ccc(S(=O)(=O)Cc4c(Cl)cccc4Cl)cc32)c(C)c1C(=O)N1CCC[C@@H]1CN1CCCC1` [PHA-665752]: on Rlig1-AMP (HTS hits), the “1-D Distance” value is 1429 and the “Raw data [w Enyzm]” value was 5362. For the same compound, in data set [2] (DMSO), the solubility is 50 mg/mL and 77.93 mM.
Take `CO[C@H]1/C=C/O[C@@]2(C)Oc3c(C)c(O)c4c(O)c(c(/C=N/N5CCN(C)CC5)c(O)c4c3C2=O)NC(=O)/C(C)=C\C=C\[C@H](C)[C@H](O)[C@@H](C)[C@@H](O)[C@@H](C)[C@H](OC(C)=O)[C@@H]1C` [Rifampicin]: in data set [1], the “solubility, DMSO” value is 50000 µg/mL (≈ 60.8 mM) and the “solubility, H2O” value is 1000 µg/mL (≈ 1.22 mM). For the same compound, on Rlig1-AMP (sheet HTS hits), the “1-D Distance” value is given as 268, the “Raw data [w Enyzm]” value is 2212 and the “Raw data [w/o Enzym]” value is 2480.
Consider `CO[C@H]1/C=C/O[C@@]2(C)Oc3c(C)c(O)c4c(O)c(c(/C=N/N5CCN(C6CCCC6)CC5)c(O)c4c3C2=O)NC(=O)/C(C)=C\C=C\[C@H](C)[C@H](O)[C@@H](C)[C@@H](O)[C@@H](C)[C@H](OC(C)=O)[C@@H]1C` [Rifapentine], for which, in data set [1], the “solubility, DMSO” value was at least 50000 µg/mL and the “solubility, H2O” value is under 100 µg/mL. Besides, on Rlig1-AMP (sheet HTS hits), the “1-D Distance” value is recorded as 1003, the “Raw data [w Enyzm]” value was found to be 7400 and the “Raw data [w/o Enzym]” value was 6397.
For `O=C1c2ccccc2-c2nc3nonc3nc21` [SMER3], in data set [1], the “solubility, DMSO” value is on record as “DMSO : 12.5 mg/mL (55.76 mM; Need ultrasonic)”. At Rlig1-AMP (setting [4]), the “1-D Distance.npi” value is 102.522. On Rlig1-AMP (sheet HTS hits), the “1-D Distance” value is listed as 157, the “Raw data [w Enyzm]” value worked out at 13928 and the “Raw data [w/o Enzym]” value is recorded as 13771.
For `CCOc1ccccc1OCCN[C@H](C)Cc1ccc(OC)c(S(N)(=O)=O)c1` [Tamsulosin], the “solubility, DMSO” value in data set [1] is “DMSO : 100 mg/mL (244.79 mM; Need ultrasonic)”. In addition, on Rlig1-AMP (sheet HTS hits), the “1-D Distance” value was 1837, the “Raw data [w Enyzm]” value was 8934 and the “Raw data [w/o Enzym]” value is on record as 10771.
`Cn1nc(-c2ccc(C(F)(F)F)cc2)nc2c(=O)n(C)c(=O)nc1-2` [Walrycin B]: at Rlig1-AMP (HTS hits), the “1-D Distance” value is reported as 868, the “Raw data [w Enyzm]” value amounted to 16245 and the “Raw data [w/o Enzym]” value amounted to 17113. For the same compound, at Rlig1-AMP (setting [3]), the “1-D Distance.npi” value came out at 89.8871. The solubility in data set [2] (DMSO) is 11.5 mg/mL and 34.10 mM.
